Where two headings read alike, the source gives them in different places.
Test: SAD study in healthy volunteers: PK in plasma, whole blood, red blood cells
Assay type: in vivo, human
Conditions: for Cmax / AUC(0-t) / half-life / Kp / blood plasma ratio: human; for Kp: red blood cells and plasma; for Kp / blood plasma ratio: HV, dose range of 50 to 2200 mg; for blood plasma ratio: whole blood and plasma
Description: To evaluate the safety and tolerability of single ascending doses of Compound I, 48 healthy volunteers (42 in the fasted state and 6 in the fed state) aged 18 to 55 years old were administered single ascending doses (50 mg to 2200 mg) of Compound I, while 16 healthy volunteers (14 in the fasted state and 2 in the fed state) aged 18 to 55 years old were administered placebo in a double blind, randomized, sequential manner.
Whole blood pharmacokinetic (PK) parameters, using actual sample collection times, and hemoglobin occupancy after single ascending dose are shown in Table 5 (containing data from both healthy volunteers and SCD subjects) and Table 6 (containing data from only healthy volunteer subjects).

## O=Cc1c(O)cccc1OC[C@@H]1COCCN1C(=O)c1cccnc1CCO [Compound I, (S)-2-hydroxy-6-((4-(2-(2-hydroxyethyl)nicotinoyl)morpholin-3-yl)methoxy)benzaldehyde]
HV single 50 mg
  B:P ratio (mean AUC0-t blood:mean AUC0-t plasma): 220
HV single 100 mg
  B:P ratio (mean AUC0-t blood:mean AUC0-t plasma): 214
HV single 200 mg
  B:P ratio (mean AUC0-t blood:mean AUC0-t plasma): 206
HV single 400 mg
  B:P ratio (mean AUC0-t blood:mean AUC0-t plasma): 185
Healthy subjects n=6, single 100 mg
  B:P ratio AUC0-inf: 216
plasma, 100 mg, healthy volunteers n=6, single 100 mg, geometric mean
  Cmax: 714 ng/mL
plasma, 100 mg, healthy volunteers n=6, single 100 mg, plasma, geometric mean, read-out: AUC0-t
  AUC(0-t): 68.7 µg·h/mL
plasma, 100 mg, healthy volunteers n=6, single 100 mg, plasma, geometric mean, read-out: t½ (converted)
  half-life: 25.6 days
plasma, po, 50 mg, HV single oral 50 mg (Cohort 1), geometric mean
  Cmax: 400 ng/mL
plasma, po, 50 mg, HV single oral 50 mg (Cohort 1), plasma, geometric mean, read-out: AUClast
  AUC(0-t): 31.1 µg·h/mL
plasma, po, 50 mg, HV single oral 50 mg (Cohort 1), plasma, geometric mean, read-out: t1/2 (converted)
  half-life: 28.7 days
plasma, po, 100 mg, HV single oral 100 mg (Cohort 2), geometric mean
  Cmax: 714 ng/mL
plasma, po, 100 mg, HV single oral 100 mg (Cohort 2), plasma, geometric mean, read-out: AUClast
  AUC(0-t): 68.7 µg·h/mL
plasma, po, 100 mg, HV single oral 100 mg (Cohort 2), plasma, geometric mean, read-out: t1/2 (converted)
  half-life: 25.6 days
plasma, po, 200 mg, HV single oral 200 mg (Cohort 3), geometric mean
  Cmax: 1290 ng/mL
plasma, po, 200 mg, HV single oral 200 mg (Cohort 3), plasma, geometric mean, read-out: AUClast
  AUC(0-t): 135 µg·h/mL
plasma, po, 200 mg, HV single oral 200 mg (Cohort 3), plasma, geometric mean, read-out: t1/2 (converted)
  half-life: 30.8 days
plasma, po, 400 mg, HV single oral 400 mg (Cohort 5), geometric mean
  Cmax: 3190 ng/mL
plasma, po, 400 mg, HV single oral 400 mg (Cohort 5), plasma, geometric mean, read-out: AUClast
  AUC(0-t): 331 µg·h/mL
plasma, po, 400 mg, HV single oral 400 mg (Cohort 5), plasma, geometric mean, read-out: t1/2 (converted)
  half-life: 26 days
plasma, po, 800 mg, HV single oral 800 mg (Cohort 6), geometric mean
  Cmax: 4250 ng/mL
plasma, po, 800 mg, HV single oral 800 mg (Cohort 6), plasma, geometric mean, read-out: AUClast
  AUC(0-t): 609 µg·h/mL
plasma, po, 800 mg, HV single oral 800 mg (Cohort 6), plasma, geometric mean, read-out: t1/2 (converted)
  half-life: 20.7 days
plasma, po, 1400 mg, HV single oral 1400 mg (Cohort 7), geometric mean
  Cmax: 7780 ng/mL
plasma, po, 1400 mg, HV single oral 1400 mg (Cohort 7), plasma, geometric mean, read-out: AUClast
  AUC(0-t): 1030 µg·h/mL
plasma, po, 1400 mg, HV single oral 1400 mg (Cohort 7), plasma, geometric mean, read-out: t1/2 (converted)
  half-life: 21.4 days
plasma, po, 2200 mg, HV single oral 2200 mg (Cohort 8), geometric mean
  Cmax: 9300 ng/mL
plasma, po, 2200 mg, HV single oral 2200 mg (Cohort 8), plasma, geometric mean, read-out: AUClast
  AUC(0-t): 1360 µg·h/mL
plasma, po, 2200 mg, HV single oral 2200 mg (Cohort 8), plasma, geometric mean, read-out: t1/2 (converted)
  half-life: 22.1 days
read-out: mean RBC to plasma ratio for AUCinf
  Kp: 420 to 530
read-out: mean RBC to plasma ratio for Cmax
  Kp: 49 to 99
Red blood cells, po, 50 mg, HV single oral 50 mg (Cohort 1), red blood cells (calculated conc.), geometric mean, read-out: AUClast
  AUC(0-t): 16500 µg·h/mL
Red blood cells, po, 50 mg, HV single oral 50 mg (Cohort 1), red blood cells (calculated conc.), geometric mean, read-out: t1/2 (converted)
  half-life: 28.3 days
Red blood cells, po, 50 mg, HV single oral 50 mg (Cohort 1), red blood cells (conc. calculated from blood, plasma, hematocrit), geometric mean
  Cmax: 19300 ng/mL
Red blood cells, po, 100 mg, HV single oral 100 mg (Cohort 2), red blood cells (calculated conc.), geometric mean
  Cmax: 41700 ng/mL
Red blood cells, po, 100 mg, HV single oral 100 mg (Cohort 2), red blood cells (calculated conc.), geometric mean, read-out: AUClast
  AUC(0-t): 34500 µg·h/mL
Red blood cells, po, 100 mg, HV single oral 100 mg (Cohort 2), red blood cells (calculated conc.), geometric mean, read-out: t1/2 (converted)
  half-life: 29 days
Red blood cells, po, 200 mg, HV single oral 200 mg (Cohort 3), red blood cells (calculated conc.), geometric mean
  Cmax: 76900 ng/mL
Red blood cells, po, 200 mg, HV single oral 200 mg (Cohort 3), red blood cells (calculated conc.), geometric mean, read-out: AUClast
  AUC(0-t): 64400 µg·h/mL
Red blood cells, po, 200 mg, HV single oral 200 mg (Cohort 3), red blood cells (calculated conc.), geometric mean, read-out: t1/2 (converted)
  half-life: 28.1 days
Red blood cells, po, 400 mg, HV single oral 400 mg (Cohort 5), red blood cells (calculated conc.), geometric mean
  Cmax: 210000 ng/mL
Red blood cells, po, 400 mg, HV single oral 400 mg (Cohort 5), red blood cells (calculated conc.), geometric mean, read-out: AUClast
  AUC(0-t): 151000 µg·h/mL
Red blood cells, po, 400 mg, HV single oral 400 mg (Cohort 5), red blood cells (calculated conc.), geometric mean, read-out: t1/2 (converted)
  half-life: 25.2 days
Red blood cells, po, 800 mg, HV single oral 800 mg (Cohort 6), red blood cells (calculated conc.), geometric mean
  Cmax: 351000 ng/mL
Red blood cells, po, 800 mg, HV single oral 800 mg (Cohort 6), red blood cells (calculated conc.), geometric mean, read-out: AUClast
  AUC(0-t): 247000 µg·h/mL
Red blood cells, po, 800 mg, HV single oral 800 mg (Cohort 6), red blood cells (calculated conc.), geometric mean, read-out: t1/2 (converted)
  half-life: 26 days
Red blood cells, po, 1400 mg, HV single oral 1400 mg (Cohort 7), red blood cells (calculated conc.), geometric mean
  Cmax: 543000 ng/mL
Red blood cells, po, 1400 mg, HV single oral 1400 mg (Cohort 7), red blood cells (calculated conc.), geometric mean, read-out: AUClast
  AUC(0-t): 455000 µg·h/mL
Red blood cells, po, 1400 mg, HV single oral 1400 mg (Cohort 7), red blood cells (calculated conc.), geometric mean, read-out: t1/2 (converted)
  half-life: 27.4 days
Red blood cells, po, 2200 mg, HV single oral 2200 mg (Cohort 8), red blood cells (calculated conc.), geometric mean
  Cmax: 910000 ng/mL
Red blood cells, po, 2200 mg, HV single oral 2200 mg (Cohort 8), red blood cells (calculated conc.), geometric mean, read-out: AUClast
  AUC(0-t): 626000 µg·h/mL
Red blood cells, po, 2200 mg, HV single oral 2200 mg (Cohort 8), red blood cells (calculated conc.), geometric mean, read-out: t1/2 (converted)
  half-life: 24.6 days
read-out: mean blood to plasma ratio for AUCinf
  blood plasma ratio: 177 to 219
read-out: mean blood to plasma ratio for Cmax
  blood plasma ratio: 20 to 42
Whole blood, 50 mg, HV single 50 mg, mean
  Cmax: 8100 ng/mL
Whole blood, 50 mg, HV single 50 mg, whole blood, mean, read-out: AUC0-t
  AUC(0-t): 6900 µg·h/mL
Whole blood, 50 mg, HV single 50 mg, whole blood, mean, read-out: t1/2 (converted)
  half-life: 28.9 days
Whole blood, 100 mg, HV single 100 mg, mean
  Cmax: 17400 ng/mL
Whole blood, 100 mg, HV single 100 mg, whole blood, mean, read-out: AUC0-t
  AUC(0-t): 14400 µg·h/mL
Whole blood, 100 mg, HV single 100 mg, whole blood, mean, read-out: t1/2 (converted)
  half-life: 29.8 days
Whole blood, 100 mg, healthy subjects n=6, single 100 mg, blood, geometric mean
  Cmax: 17300 ng/mL
Whole blood, 100 mg, healthy subjects n=6, single 100 mg, blood, geometric mean, read-out: AUC0-t
  AUC(0-t): 14300 µg·h/mL
Whole blood, 100 mg, healthy subjects n=6, single 100 mg, blood, geometric mean, read-out: t½ (converted)
  half-life: 29.1 days
Whole blood, 200 mg, HV single 200 mg, mean
  Cmax: 35800 ng/mL
Whole blood, 200 mg, HV single 200 mg, whole blood, mean, read-out: AUC0-t
  AUC(0-t): 29300 µg·h/mL
Whole blood, 200 mg, HV single 200 mg, whole blood, mean, read-out: t1/2 (converted)
  half-life: 28.4 days
Whole blood, 400 mg, HV single 400 mg, mean
  Cmax: 88100 ng/mL
Whole blood, 400 mg, HV single 400 mg, whole blood, mean, read-out: AUC0-t
  AUC(0-t): 61900 µg·h/mL
Whole blood, 400 mg, HV single 400 mg, whole blood, mean, read-out: t1/2 (converted)
  half-life: 25.8 days
Whole blood, 800 mg, HV single 800 mg, mean
  Cmax: 149000 ng/mL
Whole blood, 800 mg, HV single 800 mg, whole blood, mean, blood collected up to day 42, read-out: AUC0-t
  AUC(0-t): 74300 µg·h/mL
Whole blood, 1400 mg, HV single 1400 mg, mean
  Cmax: 231000 ng/mL
Whole blood, 1400 mg, HV single 1400 mg, whole blood, mean, blood collected up to day 42, read-out: AUC0-t
  AUC(0-t): 137000 µg·h/mL

— patent US20250041312A1, “METHODS OF ADMINISTERING A MODULATOR OF HEMOGLOBIN” (Global Blood Therapeutics, Inc., priority 2021, published 2025)
